Results as given in publication PMC7495481, “Sequence specificity analysis of the SETD2 protein lysine methyltransferase and discovery of a SETD2 super-substrate” (Communications Biology, 2020).

How the values were obtained:
Type in all cases: biochemical
NSD2 = assay: Peptide methylation by NSD2; conditions: peer review file
From the text: (§1) We, therefore, repeated the peptide array used for the development of the SETD2 super-substrate, which is shown in Figure 2A of our manuscript for NSD1 and NSD2. […]
(§2) that this mutation specifically increases the activity of these two enzymes. In contrast, with […]
(§3) combined with H39N/K. Importantly, in case of SETD2 H39N only has an effect in the context of the other mutations in ssK36. We conclude that the ssK36 substrate is specifically optimized for SETD2 as expected given the workflow of our experiments. The finding that H39N increases the activity of NSD1 and NSD2 is interesting and deserves additional work. It […]
(§4) conducted with NSD1 and NSD2. The SETD2 panel is taken from the manuscript for comparison. The table indicates the peptide compositions. Note, the gradual increase of methylation with increasing number of mutations in the case of SETD2. In case of NSD1 and NSD2, increased methylation is solely due to the H39N mutation , which has a weaker […]

SETD2 = target: T1, SETD2 (Homo sapiens, UniProt Q9BYW2); assay: Methylation of purified ssK36 and H3K36 peptides, Tricine gel autoradiography; conditions: 20 µM peptide, 6 µM SETD2, 0.76 µM AdoMet, 3 h, 25 °C; densitometry, three independent experiments, ± SD
T1 construct: SETD2 catalytic SET domain (amino acids 1347–1711, UniProt No: Q9BYW2); made in house; host or cells: E. coli
T1 sequence (Q9BYW2 1347-1711): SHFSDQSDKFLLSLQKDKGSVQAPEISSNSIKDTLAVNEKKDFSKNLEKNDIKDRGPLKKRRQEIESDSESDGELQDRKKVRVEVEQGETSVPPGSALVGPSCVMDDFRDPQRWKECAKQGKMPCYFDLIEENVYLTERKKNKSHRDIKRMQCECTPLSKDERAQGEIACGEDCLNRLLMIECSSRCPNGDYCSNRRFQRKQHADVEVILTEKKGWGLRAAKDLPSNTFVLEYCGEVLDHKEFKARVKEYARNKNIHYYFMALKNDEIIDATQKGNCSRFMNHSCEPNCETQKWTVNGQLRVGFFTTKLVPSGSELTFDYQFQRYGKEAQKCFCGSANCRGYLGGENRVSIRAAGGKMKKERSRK
From the text: To compare the methylation rates of the H3K36 and super-substrate peptides directly, purified ssK36 and H3K36 were methylated by SETD2, resolved on a Tricine gel and the methylation activity captured by autoradiography (Fig. 2b). To allow direct comparison of the methylation levels of both substrates, methylated ssK36 was loaded in different dilutions on the same gel.
The H3K36 (27–43) and the H3K36M (27–43) peptides were purchased from Intavis AG (Köln, Germany) and the ssK36 peptide (29–43) and the ssK36M peptide (29–43) were from Innovative Peptide Solutions (Berlin, Germany). If not indicated otherwise, peptide methylation reactions were performed using 20 µM peptide and 6 µM SETD2 in 20 µl methylation buffer supplemented with 0.76 µM radioactive labeled AdoMet (PerkinElmer) for 3 h at 25 °C. The reactions were halted by the addition of Tricine-SDS-PAGE loading buffer and incubation for 5 min at 95 °C. Afterward the samples were separated by Tricine-SDS-PAGE, which was followed by the incubation of the gel in amplify NAMP100V (GE Healthcare) for 45 min on a shaker and drying of the gel for 2 h at 55 °C in vacuum. The signals of the transferred radioactive labeled methyl groups were detected by autoradiography using a hyperfilm^TM high performance autoradiography film (GE Healthcare) at −80 °C in the dark. […]

NSD1 = assay: Peptide methylation by NSD1; conditions: peer review file
From the text: as §1, §2, §3, §4

SUV39H2 = assay: Methylation of ssK36 by SUV39H2; conditions: peer review file Figure R1

APRFGGVKRPNRYRP [ssK36, super-substrate peptide with four amino acid exchanges (A31R, T32F, K37R, H39N)]
methylation by NSD2 (NSD2): better substrate than H3K36 | fold more efficient methylation of ssK36 than wild type H3K36 peptide (SETD2): 50 ± 4 fold | methylation by NSD1 (NSD1): better substrate than H3K36 | methylation by SUV39H2 (SUV39H2): Lack of methylation
